Assay results as given in US5106951A, “Antibody conjugates” (NeoRx Corporation, priority 1989, dated 1992).

How the values were obtained:
Experiment in all cases: Binding of doxorubicin by synthetic oligopeptide, absorbance titration
[1] = biological target: synthetic oligopeptide, Peptide 1, CKWGWK-amide; settings: pH 7.0 0.1M phosphate buffer, doxorubicin absorption at 475 nm or 565 nm titrated with peptide
Text: (§1) Experiments have been conducted to assess the use of synthetic oligopeptides to bind the drug doxorubicin. Binding was followed by changes in the visible spectrum of doxorubicin, and analyzed by titrating the drug absorption spectrum at 475 nm or 565 nm with varying concentrations of peptide, in pH 7.0 0.1M phosphate buffer. Binding curves were fit to a single hyperbola with the program Enzfitter (Elsevier-Biosoft). These peptides were designed to test the effectiveness in intercalating doxorubicin of a 1,3-spacing between amino acids containing aromatic groups in their side chains (i.e., a single non-aromatic amino acid intervenes between the two residues having aromatic side chains). The amino acids are C, cys; K, lys; W, trp; G, gly; E, glu; D, asp; Fmoc, 9-fluorenylmethoxycarbonyl, attached to the lysine epsilon-amino group; and MIANS, 2-(4'-maleimidylanilino)naphthalene-6-sulfonic acid attached to cysteine.

[2] = biological target: synthetic oligopeptide, Peptide 10, EEK(Fmoc)GK(Fmoc)EEGGC; settings: pH 7.0 0.1M phosphate buffer; doxorubicin absorption at 475 nm or 565 nm titrated with peptide
Text: as §1

[3] = biological target: synthetic oligopeptide, Peptide 2, CKWGWGWK-amide; settings: pH 7.0 0.1M phosphate buffer, doxorubicin absorption at 475 nm or 565 nm titrated with peptide
Text: as §1

[4] = biological target: synthetic oligopeptide, Peptide 3, […]-amide; settings: pH 7.0 0.1M phosphate buffer, doxorubicin absorption at 475 nm or 565 nm titrated with peptide
Text: as §1

[5] = biological target: synthetic oligopeptide, Peptide 4, KK(Fmoc)GK(Fmoc)KGGC; settings: pH 7.0 0.1M phosphate buffer, doxorubicin absorption at 475 nm or 565 nm titrated with peptide
Text: as §1

[6] = biological target: synthetic oligopeptide, Peptide 7, EK(Fmoc)GK(Fmoc)EGGC; settings: pH 7.0 0.1M phosphate buffer; 1,3 spacing of aromatic side chains
Text: as §1

[7] = biological target: synthetic oligopeptide, Peptide 9, EK(Fmoc)EK(Fmoc)EGGC; settings: pH 7.0 0.1M phosphate buffer, doxorubicin absorption at 475 nm or 565 nm titrated with peptide
Text: as §1

[8] = biological target: synthetic oligopeptide, Peptide 5, EK(Fmoc)GGK(Fmoc)EGGC; settings: pH 7.0 0.1M phosphate buffer, 1,4 spacing of aromatic side chains
Text: as §1, with “These peptides were designed to test the effectiveness in intercalating doxorubicin of a 1,3-spacing between amino acids containing aromatic groups in their side chains (i.e., a single non-aromatic amino acid intervenes between the two residues having aromatic side chains).” left out

[9] = biological target: synthetic oligopeptide, Peptide 6, EK(Fmoc)K(Fmoc)EGGC; settings: pH 7.0 0.1M phosphate buffer, 1,2 spacing of aromatic side chains
Text: as §1, with “These peptides were designed to test the effectiveness in intercalating doxorubicin of a 1,3-spacing between amino acids containing aromatic groups in their side chains (i.e., a single non-aromatic amino acid intervenes between the two residues having aromatic side chains).” left out

[10] = biological target: synthetic oligopeptide, Peptide 8, DK(Fmoc)GK(Fmoc)DGGC (DK(Fmoc)GK(Fmoc)DGGC-amide); settings: 50 μM doxorubicin in 0.1M phosphate buffer at pH 7.0, 475 nm, fit to single hyperbola; read-out: Kd (apparent dissociation constant)
Text: as §1
No absorbance change was observed when the oligopeptide was added to buffer in the absence of doxorubicin. […] Oligopeptide carrier alone was added to the reference cuvette. The binding constant is derived from the nonlinear least squares best fit to a single hyperbola using the program Enzfitter (Elsevier-Biosoft), yielding an apparent dissociation constant of 22 μM.

[11] = test system: synthetic oligopeptide, Peptide 11, EC(MIANS)GC(MIANS)EGGC(Acm)
Text: as §1
This oligopeptide was prepared by first synthesizing the oligopeptide ECGCEGGC(Acm), wherein "Acm" represents an acetamidomethyl protecting group. The synthesis was conducted using the solid phase methodology of Barany and Merrifield, supra, and Houghten, R. A., Proc Nat. Acad. Sci. USA 82:5131, 1985. The number of cysteine thiols per peptide was 1.8 as measured by titration with Ellman's reagent. […]
The peptide concentration was determined with ninhydrin. […]

## COc1cccc2c1C(=O)c1c(O)c3c(c(O)c1C2=O)C[C@@](O)(C(=O)CO)C[C@@H]3O[C@H]1C[C@H](N)[C@H](O)[C@H](C)O1 [Doxorubicin, doxorubicin]
[1]
  Kd: no detectable
[1]; listed as doxorubicin
  Kd: no detectable binding
[2]
  Kd: 33 µM
[3]
  Kd: same
[3]; listed as doxorubicin
  Kd: no detectable binding
[4]
  Kd: same
[4]; listed as doxorubicin
  Kd: no detectable binding
[5]
  Kd: same
[5]; listed as doxorubicin
  Kd: no detectable binding
[6]
  Kd: 280 µM
[7]
  Kd: no detectable
[7]; listed as doxorubicin
  Kd: binding is not observed
[8]
  Kd: same
[8]; listed as doxorubicin
  Kd: the same result is obtained
[9]
  Kd: same
[9]; listed as doxorubicin
  Kd: undetectable binding
[10]
  Kd: 22 µM
[11]; MIANS peptide compared with FMOC peptide, 1,3 spacing
  improvement of binding of doxorubicin by MIANS side chain versus FMOC: about 6 fold
[11]; pH 7.0 0.1M phosphate buffer, at 565 or 580 nm, read-out: Kd (best-fit apparent dissociation constant)
  Kd: 48 µM
